The text below walks through data of patent publication US9522167B2, “Alphanizomenon flos aquae preparation, extracts and purified components thereof for the treatment of neurological, neurodegenerative and mood disorders” (Nutratec, s.r.l., priority 2006, dated 2016).

One experiment concerns neurons. Briefly: Neuroprotection against glutamate-induced apoptosis of cultured neurons (DAPI staining). In kind it is cell-based. As to conditions: glutamate 100 μM plus 10 μM glycine, 30 min pre-incubation, apoptosis after 24 h. The protocol:
The exposure of neurons to glutamate was carried according to a slightly modified method (50): culture medium was removed and neurons were washed once with prewarmed 37° C. buffered Hanks' solution (5.26 mM KCl, 0.43 mM KH2H2PO4, 132.4 mM NaCl, 4.09 mM NaHCO3, 0.33 mM Na2HPO4, 20 mM glucose, 2 mM CaCl2, and 20 mM HEPES, pH 7.4) and pre-incubated in the absence or presence of several concentrations of AFA extract (1-50 nM), PC (10-1000 nM), PCB (10-1000 nM) and MAA (1-10 μM) in prewarmed 37° C. buffered Hanks' solution. After 30 min of pre-incubation, L-glutamate was added from concentrated solutions to the final concentration indicated 100 μM plus 10 μM glycine. […]
Apoptosis was assessed by staining the nuclei of cells with DAPI (50), a membrane-permeable fluorescent dye that binds DNA and allows quantification of apoptotic neurons, i.e., neurons displaying fragmented or condensed nuclei. […] Cells were scored for chromatin condensation by fluorescence microscopy, using a fluorescein filter (330-380 excitation; 30× magnification). Total and apoptotic nuclei were counted. In all cases, approximately 600-1,000 cells were counted per well by an operator blind to the protocol design. Measurements from individual cultures were performed in duplicate and results are expressed as the mean S.E.M. values for the number of culture preparations indicated. […]
Regarding phycocyanobilin [PCB], the “amount lowering apoptosis below the control level” value is given as “approximately 10 nM”.

For a further experiment, the system named is MAO-B.
Assay: not given
As to conditions: literature values (ref. 45); cited from earlier work.
Take `Oc1cc(O)c2c(c1)OC(c1ccc(O)c(O)c1)C(O)C2` (stereo not drawn) [Catechine]: the Inhibition type entry was “Mixed”.
In the case of `Cc1cc(O)c2c(c1)C(=O)c1cc(O)cc(O)c1C2=O` [Emodin], the Inhibition type result is reported as “Mixed”.
For `COc1ccc(C(C)=O)c(O)c1` [Paeonol], the Inhibition type entry was “Competitive”.
Turning to Epicatechine, the Inhibition type result is listed as “Mixed”.

The same experiment, now with this note: literature values (ref. 45); read-out: IC50 of MAO-B inhibition; cited from earlier work.
The term IC50 denotes the concentration needed to halve the response being measured. Take `Oc1cc(O)c2c(c1)OC(c1ccc(O)c(O)c1)C(O)C2` (stereo not drawn) [Catechine]: the half-maximal inhibitory concentration (IC50) was 88.6 µM.
For the compound `Cc1cc(O)c2c(c1)C(=O)c1cc(O)cc(O)c1C2=O` [Emodin], the IC50 was 35.4 µM.
With `COc1ccc(C(C)=O)c(O)c1` [Paeonol], the 50% inhibitory concentration (IC50) was 42.5 µM.
With Epicatechine, the concentration for half-maximal inhibition (IC50) is 58.9 µM.

The same experiment, now with this note: literature values (ref. 45); read-out: Ki of MAO-B inhibition; cited from earlier work.
For orientation: Ki means a measure of affinity in units of concentration, obtained from inhibition or displacement. As for `Cc1cc(O)c2c(c1)C(=O)c1cc(O)cc(O)c1C2=O` [Emodin], the inhibition constant (Ki) is 15.1 µM.
Turning to `COc1ccc(C(C)=O)c(O)c1` [Paeonol], the inhibitory constant (Ki) was 38.2 µM.
For Epicatechine, the Ki was 21 µM.
